B1: DSV36S: anti-G-alphai antibody of Cisbio Bioassays, VH SEQ ID NO: 15 and VL SEQ ID NO: 16; used labeled with d2 or Lumi4Tb (antibody, V domains shown)
VH: EVQLQQSGAELVRPGALVKLSCKASGFNIKDYYMHWVKQRPEQGLEWIGWIDPENGNTIYDPKFQGKASITADTSSNTAYLQLSSLTSEDTAVYYCTRGGGYYSDWYFDVWGAGTTVTVSS
VL: QIVLTQSPAIMSASPGEKVTMTCSASSSVSYMHWYQQKSGTSPKRWIYDTSKLASGVPARFSGSGSGTSYSLTISSMEAEDAATYYCQQWSSNPPITFGAGTKLELK
modifications: d2 or Lumi4Tb label; Heavy chain variable domain (VH); Light chain variable domain (VL)

What was measured:
[1] = target: T1, Delta Opioid GPCR (Homo sapiens, UniProt P41143); test: Activation test according to format 2A on Delta Opioid GPCR (antagonist mode); type: biochemical; conditions: Example 15; SNC162 200 nM fixed; increasing antagonist concentration; GTPgN-octyl-C2 6 nM + DSV36S-d2 10 nM; CHO-DOR membranes; NaCl 300 mM; GDP 0.5 μM
T1 construct: purchased Perkin Elmer or Euroscreen
Method: All the reagents were diluted in TrisHCl buffer 50 mM pH 7.4, MgCl2 10 mM, BSA 0.1%, NaCl 10 mM or 100 mM or 300 mM or 500 mM (concentration specified in the legend of each figure), 0 or 0.5 or 1 μM GDP (concentration specified in the legend of each figure). The membranes were prepared 4× for distributing 1 or 10 μg/well (amount specified in the legend of each figure). The nucleotide GTPgS (nonspecific signal condition) was prepared 6.67× to obtain a final concentration in the wells of 100 μM. The test compounds (agonists or antagonists) were prepared 10× to obtain the final concentrations in the wells mentioned in the diagrams. […]
• Membranes expressing the GPCR and the G protein: 5 μL • Buffer or GTPgS nucleotide (for the nonspecific signal condition): 3 μL • Nonhydrolyzable/slowly hydrolyzable GTP analogue—donor or acceptor: 5 μL • anti G-alphai-donor or acceptor ligand: 5 μL • Buffer or test compounds (agonists and/or antagonists): 2 μL. The nonspecific signal (fluorescence background noise) was measured with wells containing an excess of GTPgS (100 μM). Reading the HTRF Signal […]
From the raw signals at 665 nm (for red acceptor—Cy5) or 520 nm (for green acceptors—AF488 or Fluorescein) and 620 nm, the HTRF Ratio was calculated from the following formula: HTRF Ratio=Signal at 665 nm or Signal at 520 nm/Signal at 620 nm*10.000. […]

[2] = target: switch II domain of the alphai G-protein (Homo sapiens, UniProt P63096); test: Binding site of the anti-G-alphai antibodies
switch II domain of the alphai G-protein, sequence (P63096 whole entry, the tested form may be a part): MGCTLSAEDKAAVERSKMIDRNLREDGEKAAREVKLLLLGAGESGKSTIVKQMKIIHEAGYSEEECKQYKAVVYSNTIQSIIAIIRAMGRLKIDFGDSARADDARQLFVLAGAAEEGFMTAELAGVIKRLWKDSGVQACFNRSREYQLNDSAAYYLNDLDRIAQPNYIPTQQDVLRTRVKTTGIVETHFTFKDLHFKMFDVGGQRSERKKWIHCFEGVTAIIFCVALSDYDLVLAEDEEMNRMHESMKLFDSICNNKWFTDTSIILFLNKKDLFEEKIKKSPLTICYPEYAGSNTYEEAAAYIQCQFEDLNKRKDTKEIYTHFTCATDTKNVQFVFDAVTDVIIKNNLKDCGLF

T1 sequence (P41143 whole entry): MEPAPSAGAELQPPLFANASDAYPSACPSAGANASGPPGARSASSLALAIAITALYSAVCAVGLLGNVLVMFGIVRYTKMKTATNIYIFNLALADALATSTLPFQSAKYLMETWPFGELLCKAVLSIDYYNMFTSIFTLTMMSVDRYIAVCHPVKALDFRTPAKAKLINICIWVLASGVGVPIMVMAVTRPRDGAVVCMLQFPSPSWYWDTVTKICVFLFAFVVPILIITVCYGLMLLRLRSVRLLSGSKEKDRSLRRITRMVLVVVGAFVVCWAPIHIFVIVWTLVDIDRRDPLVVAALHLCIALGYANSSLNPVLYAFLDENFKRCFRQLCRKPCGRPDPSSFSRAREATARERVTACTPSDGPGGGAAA

Row | Molecule | inhibition of activation by agonist SNC162 (decrease in the TR-FRET signal, HTRF Ratio) [1] | binding site on the alphai G-protein [2]
1 | Oc1ccc2c3c1O[C@H]1c4[nH]c5ccccc5c4C[C@@]4(O)[C@@H](C2)N(CC2CC2)CC[C@]314 [Naltrindole] | inhibited | 
2 | B1 |  | bind at the level of the switch II domain of the alphai G-protein

Source: patent US12584916B2, “Method for measuring the modulation of the activation of a G protein-coupled receptor with GTP analogues” (CISBIO BIOASSAYS, priority 2019, dated 2026)
